Marks after values point to notes of the source that are not given here.
Legend:
[1] = Example 1 single-dose plasma pharmacokinetics after intranasal administration; type: in vivo, human; details: healthy subjects; single intranasal 160 mg cocaine HCl; plasma, >12 h after dosing
Experimental: Single-dose plasma and urinary pharmacokinetics of the pharmaceutical composition following intranasal administration was characterized in this study. This was a single-dose study in 30 healthy volunteers. The objective of the study was to examine the systemic pharmacokinetics of the pharmaceutical composition following acute, topical intranasal administration.
A single dose of a pharmaceutical composition was administered to both nostrils using cottonoid pledgets. […] Each pledget absorbed approximately 1 mL of pharmaceutical composition (i.e., 40 mg cocaine hydrochloride). Two soaked pledgets were placed into each nasal cavity of the subject and against the anterior septum for 20 minutes; thus, a total dose of 160 mg of cocaine hydrochloride was administered.
Blood samples were collected pre-dose (30 minutes before pledget insertion), and 7.5, 15, 20, 30, 45, 60, 75, 90, and 105 minutes and 2, 3, 4, 6, 8, 10, and 12 hours from the start of application of the pharmaceutical composition.
The effect of gender on Cmax, Tmax, AUClast, AUCinf, and t1/2 was determined. The effects of age, body weight, and BMI on AUClast were determined.

[2] = Example 2 urinary pharmacokinetics, normal renal function vs severe renal impairment; details: single intranasal 160 mg cocaine HCl; for 0 to 32 hour urinary recovery (geometric mean) / 0 to 32 hour urinary recovery (mean) / 0 to 32 hour urinary recovery (median): metabolites as cocaine equivalents
Experimental: For the urine analysis of cocaine, BE, and EME, individual urinary recoveries for each analyte were determined over each collection interval as the product of the urine concentration times the urine volume. The total recoveries were determined as the sum of the recoveries over all the intervals. Total urinary recoveries were also expressed as the percentage of the administered dose, after correction for the molecular weight of each analyte. The renal clearances of cocaine, BE, and EME were determined as the urinary recovery (in μg) divided by the plasma AUC over the same time interval (the longest period for which both plasma and urine measurements were available).
Urine was collected prior to dosing and from 0-2, 2-4, 4-8, 8-12, 12-24, and 24-32 hours after the beginning of dose application. […] Testing methods used were consistent with those used by inVentiv Health Clinical Lab, Inc., Miami, Fla., U.S.A. Urinary pharmacokinetic parameters included total urinary recovery (μg), urinary recovery as a percentage of dose, and CLr.

[3] = Example 3 urinary pharmacokinetics, normal hepatic function vs hepatic impairment; type: in vivo, human; details: for Urine Recovery as % of Dose, Geomean / Urine Recovery as % of Dose, Mean: 0-32 h, single intranasal dose; for CLr Geomean / CLr Mean: Table 26
Experimental: Urine was collected prior to dosing and from 0-2, 2-4, 4-8, 8-12, 12-24, and 24-32 hours after beginning of dose application. […] Urinary pharmacokinetic parameters included total urinary recovery (μg), urinary recovery as a percentage of dose, and CLr.

[4] = severe renal impairment, listed as Ecgonine Methyl Ester
[5] = normal hepatic function, single intranasal 160 mg cocaine HCl
[6] = subjects with hepatic impairment
[7] = subjects with hepatic impairment, 32 hours post administration
[8] = subjects with hepatic impairment, Table 30
[9] = subjects with normal hepatic function

COC(=O)[C@@H]1[C@H]2CC[C@@H](C[C@@H]1O)N2C [EME, ecgonine methyl ester]
plasma level not exceeded (metabolite not detectable in plasma) [1]: ≤ 50 ng/mL
0-32 h Urinary Recovery (geometric mean) ([2]; normal renal function): 894.9 µg
0-32 h Urinary Recovery (mean) ([2]; normal renal function): 1095 µg
0-32 h Urinary Recovery (median) ([2]; normal renal function): 892.8 µg
Renal Clearance, CLr (geometric mean) ([2]; normal renal function): 18.1 L/h
Renal Clearance, CLr (mean) ([2]; normal renal function): 19.1 L/h
Renal Clearance, CLr (median) ([2]; normal renal function): 21.4 L/h
Renal Clearance, geometric mean ([2]; normal renal function): 302.2 mL/min
Renal Clearance, mean ([2]; normal renal function): 317.8 mL/min
Renal Clearance, median ([2]; normal renal function): 356.1 mL/min
0 to 32 hour urinary recovery (geometric mean) ([2]; normal renal function): 0.954 % of administered dose
0 to 32 hour urinary recovery (mean) ([2]; normal renal function): 1.17 % of administered dose
0 to 32 hour urinary recovery (median) ([2]; normal renal function): 0.952 % of administered dose
0 to 32 hour urinary recovery (mean) ([2]; normal renal function, listed as Ecgonine Methyl Ester): 1.167 % of administered dose
0-32 h Urinary Recovery (geometric mean) ([2]; severe renal impairment): 1177.8 µg
0-32 h Urinary Recovery (mean) ([2]; severe renal impairment): 1425 µg
0-32 h Urinary Recovery (median) ([2]; severe renal impairment): 1104 µg
Renal Clearance, CLr (geometric mean) ([2]; severe renal impairment): 4.23 L/h
Renal Clearance, CLr (mean) ([2]; severe renal impairment): 4.95 L/h
Renal Clearance, CLr (median) ([2]; severe renal impairment): 4.05 L/h
Renal Clearance, geometric mean ([2]; severe renal impairment): 70.6 mL/min
Renal Clearance, mean ([2]; severe renal impairment): 82.5 mL/min
Renal Clearance, median ([2]; severe renal impairment): 67.6 mL/min
0 to 32 hour urinary recovery (geometric mean) ([2]; severe renal impairment): 1.26 % of administered dose
0 to 32 hour urinary recovery (mean) ([2]; severe renal impairment): 1.52 % of administered dose
0 to 32 hour urinary recovery (median) ([2]; severe renal impairment): 1.177 % of administered dose
0 to 32 hour urinary recovery (geometric mean) [2, 4]: 1.255 % of administered dose
0 to 32 hour urinary recovery (mean) [2, 4]: 1.519 % of administered dose
Urine Recovery as % of Dose, Geomean ([3]; Impaired hepatic function): 2.43 % of Dose
Urine Recovery as % of Dose, Mean ([3]; Impaired hepatic function): 3.51 % of Dose
CLr Geomean ([3]; Impaired hepatic function): 10.2 L/h
CLr Mean ([3]; Impaired hepatic function): 10.9 L/h
Urine Recovery as % of Dose, Geomean ([3]; Normal hepatic function): 0.93 % of Dose
Urine Recovery as % of Dose, Mean ([3]; Normal hepatic function): 1.12 % of Dose
CLr Geomean ([3]; Normal hepatic function): 14.6 L/h
CLr Mean ([3]; Normal hepatic function): 17.2^d L/h
0-32 h Urinary Recovery (geometric mean) [3, 5]: 875.2 µg
0-32 h Urinary Recovery (mean) [3, 5]: 1048.23 µg
0-32 h Urinary Recovery (median) [3, 5]: 1164.3 µg
Renal Clearance, geometric mean [3, 6]: 169.75 mL/min
Renal Clearance, mean [3, 6]: 181.23 mL/min
Renal Clearance, median [3, 6]: 160.92 mL/min
0-32 h Urinary Recovery (geometric mean) [3, 7]: 2278.1 µg
0-32 h Urinary Recovery (mean) [3, 7]: 3294 µg
0-32 h Urinary Recovery (median) [3, 7]: 2249.7 µg
Renal Clearance, geometric mean [3, 8]: 169.753 mL/min
Renal Clearance, mean [3, 8]: 181.233 mL/min
Renal Clearance, median [3, 8]: 160.92 mL/min
Renal Clearance, geometric mean [3, 9]: 243.011 mL/min
Renal Clearance, mean [3, 9]: 286.128 mL/min
Renal Clearance, median [3, 9]: 219.782 mL/min
